Where two headings read alike, the source gives them in different places.
Tested on: HIV-IIIb
Test: Test A: Antiviral Assay in MT4 Cells
Format: cell-based
Details: Human immunodeficiency virus 1, IIIB, MT4, 120 h
In short: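 Read-out: CellTiter-Glo chemiluminescence after 5-day incubation at 37 °C. Compounds tested as 3-fold serial dilutions (10 concentrations, quadruplicate) in RPMI 1640 with 10% FBS, on MT-4 cells pre-infected at 37 °C with HIV-IIIb at 0.004 m.o.i.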

[1] = Table 2, MT-4 cells infected with HIV-IIIb, 5 days of incubation, CellTiter-Glo, read-out: EC50

SMILES	EC50 [1]	EC50
Cc1cc2nc(-c3ccc4nnn(C)c4c3)sc2c(-c2ccc(Cl)cc2)c1[C@H](OC(C)(C)C)C(=O)O [Compound 316, (S)-2-tert-butoxy-2-(7-(4-chlorophenyl)-5-methyl-2-(1-methyl-1H-benzo[d][1,2,3]triazol-6-yl)benzo[d]thiazol-6-yl)acetic acid]	18 nM	–
Cc1cc2nc(-c3ccn4c(C)nnc4c3)sc2c(-c2ccc(Cl)cc2)c1[C@H](OC(C)(C)C)C(=O)O [Compound 317, (S)-2-tert-butoxy-2-(7-(4-chlorophenyl)-5-methyl-2-(3-methyl-[1,2,4]triazolo[4,3-a]pyridin-7-yl)benzo[d]thiazol-6-yl)acetic acid]	13 nM	–
Cc1cc2nc(-c3ccn4nnc(C)c4c3)sc2c(-c2ccc(Cl)cc2)c1[C@H](OC(C)(C)C)C(=O)O [Compound 318, (S)-2-tert-butoxy-2-(7-(4-chlorophenyl)-5-methyl-2-(3-methyl-[1,2,3]triazolo[1,5-a]pyridin-5-yl)benzo[d]thiazol-6-yl)acetic acid]	10 nM	–
Cc1cc2nc(-c3ccn4c(C)nc(C)c4c3)sc2c(-c2ccc(Cl)cc2)c1[C@H](OC(C)(C)C)C(=O)O [Compound 319, (S)-2-tert-butoxy-2-(7-(4-chlorophenyl)-2-(1,3-dimethylimidazo[1,5-a]pyridin-7-yl)-5-methylbenzo[d]thiazol-6-yl)acetic acid]	5 nM	–
Cc1cc2nc(N3CCOC(C)(c4ccc(Cl)cc4)C3)sc2c(-c2ccc(Cl)cc2)c1[C@H](OC(C)(C)C)C(=O)O (stereo partly drawn) [Compound 322, (2S)-2-tert-butoxy-2-(7-(4-chlorophenyl)-2-(2-(4-chlorophenyl)-2-methylmorpholino)-5-methylbenzo[d]thiazol-6-yl)acetic acid]	640 nM	–
Cc1ccc(C2(C)CN(c3nc4cc(C)c([C@H](OC(C)(C)C)C(=O)O)c(-c5ccc(Cl)cc5)c4s3)CCO2)cc1 (stereo partly drawn) [Compound 323, (2S)-2-tert-butoxy-2-(7-(4-chlorophenyl)-5-methyl-2-(2-methyl-2-p-tolylmorpholino)benzo[d]thiazol-6-yl)acetic acid]	384 nM	–
Cc1cc2nc(N3CCOC(c4ccc5c(cnn5C)c4)C3)sc2c(-c2ccc(Cl)cc2)c1[C@H](OC(C)(C)C)C(=O)O (stereo partly drawn) [Compound 324, (2S)-2-tert-butoxy-2-(7-(4-chlorophenyl)-5-methyl-2-(2-(1-methyl-1H-indazol-5-yl)morpholino)benzo[d]thiazol-6-yl)acetic acid]	13 nM	–
Cc1cc2nc(N3CCO[C@H](c4ccc5c(cnn5C)c4)C3)sc2c(-c2ccc(Cl)cc2)c1[C@H](OC(C)(C)C)C(=O)O [Compound 325, (S)-2-tert-butoxy-2-(7-(4-chlorophenyl)-5-methyl-2-((R)-2-(1-methyl-1H-indazol-5-yl)morpholino)benzo[d]thiazol-6-yl)acetic acid]	10 nM	–
Cc1cc2nc(N3CCO[C@@H](c4ccc5c(cnn5C)c4)C3)sc2c(-c2ccc(Cl)cc2)c1[C@H](OC(C)(C)C)C(=O)O [Compound 326, (S)-2-tert-butoxy-2-(7-(4-chlorophenyl)-5-methyl-2-((S)-2-(1-methyl-1H-indazol-5-yl)morpholino)benzo[d]thiazol-6-yl)acetic acid]	66 nM	–
Cc1cc2nc(N3CCOC(c4ccccc4)C3)sc2c(-c2ccc(Cl)cc2)c1[C@H](OC(C)(C)C)C(=O)O (stereo partly drawn) [Compound 327, (2S)-2-tert-butoxy-2-(7-(4-chlorophenyl)-5-methyl-2-(2-phenylmorpholino)benzo[d]thiazol-6-yl)acetic acid]	–	162 nM
Cc1cc2nc(-c3ccc4nn(C5COC5)cc4c3)sc2c(-c2ccc(Cl)cc2)c1[C@H](OC(C)(C)C)C(=O)O [Compound 328, (S)-2-tert-butoxy-2-(7-(4-chlorophenyl)-5-methyl-2-(2-(oxetan-3-yl)-2H-indazol-5-yl)benzo[d]thiazol-6-yl)acetic acid]	44 nM	–
Cc1cc2nc(-c3ccc4c(cnn4C4COC4)c3)sc2c(-c2ccc(Cl)cc2)c1[C@H](OC(C)(C)C)C(=O)O [Compound 329, (S)-2-tert-butoxy-2-(7-(4-chlorophenyl)-5-methyl-2-(1-(oxetan-3-yl)-1H-indazol-5-yl)benzo[d]thiazol-6-yl)acetic acid]	14 nM	–
Cc1cc2nc(-c3ccc4c(c3)c(C(C)C)nn4C)sc2c(-c2ccc(Cl)cc2)c1[C@H](OC(C)(C)C)C(=O)O [Compound 330, (S)-2-tert-butoxy-2-(7-(4-chlorophenyl)-2-(3-isopropyl-1-methyl-1H-indazol-5-yl)-5-methylbenzo[d]thiazol-6-yl)acetic acid]	19 nM	–
COc1ccc(-c2cc(-c3nc4cc(C)c([C@H](OC(C)(C)C)C(=O)O)c(-c5ccc(Cl)cc5)c4s3)c(C)nn2)cc1OC [Compound 331]	44 nM	–
Cc1cc2nc(-c3ccnc(N4CCC(C)(O)CC4)n3)sc2c(-c2ccc(Cl)cc2)c1[C@H](OC(C)(C)C)C(=O)O [Compound 332]	5 nM	–
Cc1cc2nc(-c3ccnc(N4CCC(N(C)C)CC4)n3)sc2c(-c2ccc(Cl)cc2)c1[C@H](OC(C)(C)C)C(=O)O [Compound 334]	5 nM	–
Cc1cc2nc(-c3cc(-c4ccc5c(cnn5C)c4)nnc3C)sc2c(-c2ccc(Cl)cc2)c1[C@H](OC(C)(C)C)C(=O)O [Compound 335]	14 nM	–
Cc1cc2nc(-c3ccnc(N4CCN(C)C[C@@H]4C)n3)sc2c(-c2ccc(Cl)cc2)c1[C@H](OC(C)(C)C)C(=O)O [Compound 337]	4 nM	–
COc1ccc(-c2cc(-c3nc4cc(C)c([C@H](OC(C)(C)C)C(=O)O)c(-c5ccc(Cl)cc5)c4s3)cnn2)cc1OC [Compound 338]	11 nM	–
Cc1cc2nc(-c3ccnc(N4CCN(C5CC5)CC4)n3)sc2c(-c2ccc(Cl)cc2)c1[C@H](OC(C)(C)C)C(=O)O [Compound 339]	11 nM	–
Cc1cc2nc(-c3ccnc(C4CCOCC4)n3)sc2c(-c2ccc(Cl)cc2)c1[C@H](OC(C)(C)C)C(=O)O [Compound 340]	9 nM	–
Cc1cc2nc(-c3ccnc(C4=CCOCC4)n3)sc2c(-c2ccc(Cl)cc2)c1[C@H](OC(C)(C)C)C(=O)O [Compound 341]	14 nM	–
Cc1cc2nc(-c3ccnc(C4=CCN(C)CC4)n3)sc2c(-c2ccc(Cl)cc2)c1[C@H](OC(C)(C)C)C(=O)O [Compound 342]	5 nM	–

SMILES	EC50 [1]	EC50
Cc1cc2nc(-c3ccnc(N4CCOCC4)n3)sc2c(-c2ccc(Cl)cc2)c1[C@H](OC(C)(C)C)C(=O)O [Compound 343]	26 nM	–
Cc1cc2nc(-c3ccnc(N4CCN(C)CC4)n3)sc2c(-c2ccc(Cl)cc2)c1[C@H](OC(C)(C)C)C(=O)O [Compound 344]	6 nM	–
COc1cc(-c2cc(-c3nc4cc(C)c([C@H](OC(C)(C)C)C(=O)O)c(-c5ccc(Cl)cc5)c4s3)ccn2)cnc1OC [Compound 345]	28 nM	–
Cc1cc2nc(-c3ccnc(-c4cnn(C(C)(C)C)c4)n3)sc2c(-c2ccc(Cl)cc2)c1[C@H](OC(C)(C)C)C(=O)O [Compound 346]	11 nM	–
Cc1cc2nc(-c3ccnc(-c4cnn(C)c4C)n3)sc2c(-c2ccc(Cl)cc2)c1[C@H](OC(C)(C)C)C(=O)O [Compound 347]	42 nM	–
Cc1cc2nc(-c3ccc4c(cnn4C4CCOCC4)c3)sc2c(-c2ccc(Cl)cc2)c1[C@H](OC(C)(C)C)C(=O)O [Compound 348]	30 nM	–
Cc1cc2nc(-c3ccc4[nH]ncc4c3)sc2c(-c2ccc(Cl)cc2)c1[C@H](OC(C)(C)C)C(=O)O [Compound 349]	42 nM	–
COc1ccc(-c2cc(-c3nc4cc(C)c([C@H](OC(C)(C)C)C(=O)O)c(-c5ccc(Cl)cc5)c4s3)ccn2)cc1OC [Compound 350]	14 nM	–
CCn1ncc2cc(-c3nc4cc(C)c([C@H](OC(C)(C)C)C(=O)O)c(-c5ccc(Cl)cc5)c4s3)ccc21 [Compound 351]	21 nM	–
CCCn1ncc2cc(-c3nc4cc(C)c([C@H](OC(C)(C)C)C(=O)O)c(-c5ccc(Cl)cc5)c4s3)ccc21 [Compound 352]	29 nM	–
Cc1cc2nc(-c3ccc4c(cnn4C(C)C)c3)sc2c(-c2ccc(Cl)cc2)c1[C@H](OC(C)(C)C)C(=O)O [Compound 353]	31 nM	–
Cc1cc2nc(-c3ccc(-c4ccc(Br)cc4)cc3)sc2c(-c2ccc(Cl)cc2)c1[C@H](OC(C)(C)C)C(=O)O [Compound 354]	1370 nM	–
COc1ncc(-c2ccc(-c3nc4cc(C)c([C@H](OC(C)(C)C)C(=O)O)c(-c5ccc(Cl)cc5)c4s3)cc2)cn1 [Compound 355]	182 nM	–
Cc1cc2nc(-c3ccc(-c4cnc(=O)[nH]c4)cc3)sc2c(-c2ccc(Cl)cc2)c1[C@H](OC(C)(C)C)C(=O)O [Compound 356]	3330 nM	–
Cc1cc2nc(-c3nccc(-c4ccc5c(cnn5C)c4)n3)sc2c(-c2ccc(Cl)cc2)c1[C@H](OC(C)(C)C)C(=O)O [Compound 357]	12 nM	–
Cc1cc2nc(-c3ccc4c(n3)c(C)nn4C)sc2c(-c2ccc(Cl)cc2)c1[C@H](OC(C)(C)C)C(=O)O [Compound 358]	241 nM	–
Cc1cc2nc(-c3ccc4nn(C)c(C)c4n3)sc2c(-c2ccc(Cl)cc2)c1[C@H](OC(C)(C)C)C(=O)O [Compound 359]	21 nM	–
Cc1cc2nc(-c3ccc4nn(C5CCN(C)CC5)cc4n3)sc2c(-c2ccc(Cl)cc2)c1[C@H](OC(C)(C)C)C(=O)O [Compound 360]	13 nM	–
Cc1cc2nc(-c3ccc4c(cnn4C4CCN(C)CC4)n3)sc2c(-c2ccc(Cl)cc2)c1[C@H](OC(C)(C)C)C(=O)O [Compound 361]	20 nM	–
Cc1cc2nc(-c3c4cnccc4nn3C)sc2c(-c2ccc(Cl)cc2)c1[C@H](OC(C)(C)C)C(=O)O [Compound 362]	21 nM	–
Cc1cc2nc(-c3nn(C)c4ccncc34)sc2c(-c2ccc(Cl)cc2)c1[C@H](OC(C)(C)C)C(=O)O [Compound 363]	15 nM	–
Cc1cc2nc(-c3cc4cn(C)nc4cn3)sc2c(-c2ccc(Cl)cc2)c1[C@H](OC(C)(C)C)C(=O)O [Compound 364]	9 nM	–
Cc1cc2nc(-c3cc4cnn(C)c4cn3)sc2c(-c2ccc(Cl)cc2)c1[C@H](OC(C)(C)C)C(=O)O [Compound 365]	29 nM	–

Reference: patent US8987250B2 (Gilead Sciences, Inc., priority 2012, dated 2015)
